Experimental data from the supplement of paper PMC11451515.

Tested on: NOMO1
Test: cell viability relative to DMSO control; higher = less cytotoxic
Conditions: 48 h
How it was run: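 Viability, reported as a per-plate percentage of DMSO wells with cell-free wells as background, came from CellTiter-Glo One luminescence. Reading took place after 48 h at 37°C. Before that, NOMO1 or SEM (500 cells/well) or P12-Ichikawa (1000 cells/well) leukemia cells, adapted for at least four passages in each medium, were seeded in 1536-well plates (5 μl) and pin-dosed with library compounds in DMSO, 47 μM to 0.79 nM over 11 threefold points.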

[1] = HPLM + 10% dialyzed FBS, 0.000781 µM
[2] = HPLM + 10% dialyzed FBS, 0.00234 µM
[3] = HPLM + 10% dialyzed FBS, 0.00702 µM
[4] = HPLM + 10% dialyzed FBS, 0.0211 µM
[5] = HPLM + 10% dialyzed FBS, 0.0632 µM
[6] = HPLM + 10% dialyzed FBS, 0.19 µM
[7] = HPLM + 10% dialyzed FBS, 0.569 µM
[8] = HPLM + 10% dialyzed FBS, 1.71 µM
[9] = HPLM + 10% dialyzed FBS, 5.12 µM
[10] = HPLM + 10% dialyzed FBS, 15.4 µM
[11] = HPLM + 10% dialyzed FBS, 46.1 µM
[12] = RPMI 5 mM glucose + 10% FBS, 0.000781 µM
[13] = RPMI 5 mM glucose + 10% FBS, 0.00234 µM
[14] = RPMI 5 mM glucose + 10% FBS, 0.00702 µM
[15] = RPMI 5 mM glucose + 10% FBS, 0.0211 µM
[16] = RPMI 5 mM glucose + 10% FBS, 0.0632 µM
[17] = RPMI 5 mM glucose + 10% FBS, 0.19 µM
[18] = RPMI 5 mM glucose + 10% FBS, 0.569 µM
[19] = RPMI 5 mM glucose + 10% FBS, 1.71 µM
[20] = RPMI 5 mM glucose + 10% FBS, 5.12 µM
[21] = RPMI 5 mM glucose + 10% FBS, 15.4 µM
[22] = RPMI 5 mM glucose + 10% FBS, 46.1 µM
[23] = RPMI 5 mM glucose + 10% dialyzed FBS, 0.000781 µM
[24] = RPMI 5 mM glucose + 10% dialyzed FBS, 0.00234 µM
[25] = RPMI 5 mM glucose + 10% dialyzed FBS, 0.00702 µM
[26] = RPMI 5 mM glucose + 10% dialyzed FBS, 0.0211 µM
[27] = RPMI 5 mM glucose + 10% dialyzed FBS, 0.0632 µM
[28] = RPMI 5 mM glucose + 10% dialyzed FBS, 0.19 µM
[29] = RPMI 5 mM glucose + 10% dialyzed FBS, 0.569 µM
[30] = RPMI 5 mM glucose + 10% dialyzed FBS, 1.71 µM
[31] = RPMI 5 mM glucose + 10% dialyzed FBS, 5.12 µM
[32] = RPMI 5 mM glucose + 10% dialyzed FBS, 15.4 µM
[33] = RPMI 5 mM glucose + 10% dialyzed FBS, 46.1 µM

## Cc1cnc(Nc2ccc(CN3CCOCC3)cc2)nc1Nc1cccc([S+](=O)([O-])NC(C)(C)C)c1
[1]
  cell viability: 87.4%
[2]
  cell viability: 98.1%
[3]
  cell viability: 99.1%
[4]
  cell viability: 86.6%
[5]
  cell viability: 81.3%
[6]
  cell viability: 86.9%
[7]
  cell viability: 93.7%
[8]
  cell viability: 75.6%
[9]
  cell viability: 48.1%
[10]
  cell viability: 15.5%
[11]
  cell viability: 10.3%
[12]
  cell viability: 67.8%
[13]
  cell viability: 80%
[14]
  cell viability: 79.7%
[15]
  cell viability: 71.5%
[16]
  cell viability: 75.1%
[17]
  cell viability: 74.2%
[18]
  cell viability: 78.9%
[19]
  cell viability: 68%
[20]
  cell viability: 30.8%
[21]
  cell viability: 8.44%
[22]
  cell viability: 7.72%
[23]
  cell viability: 75.4%
[24]
  cell viability: 85.6%
[25]
  cell viability: 89.4%
[26]
  cell viability: 79.2%
[27]
  cell viability: 84.4%
[28]
  cell viability: 80.8%
[29]
  cell viability: 57.8%
[30]
  cell viability: 69.8%
[31]
  cell viability: 38.3%
[32]
  cell viability: 11.6%
[33]
  cell viability: 9.38%

## CC(C)(C)OC(=O)Nc1ccc(-c2cc(C(=O)NCCCCCCC(=O)NO)no2)cc1
[1]
  cell viability: 88.5%
[2]
  cell viability: 89%
[3]
  cell viability: 84.4%
[4]
  cell viability: 89.8%
[5]
  cell viability: 98.3%
[6]
  cell viability: 104%
[7]
  cell viability: 104%
[8]
  cell viability: 99.4%
[9]
  cell viability: 68.7%
[10]
  cell viability: 13.7%
[11]
  cell viability: 4.88%
[12]
  cell viability: 86.7%
[13]
  cell viability: 80.1%
[14]
  cell viability: 81.1%
[15]
  cell viability: 84.3%
[16]
  cell viability: 85.3%
[17]
  cell viability: 88.6%
[18]
  cell viability: 99.4%
[19]
  cell viability: 80.8%
[20]
  cell viability: 67.1%
[21]
  cell viability: 11.8%
[22]
  cell viability: 4.55%
[23]
  cell viability: 86.3%
[24]
  cell viability: 82.8%
[25]
  cell viability: 89.2%
[26]
  cell viability: 88.2%
[27]
  cell viability: 99.3%
[28]
  cell viability: 92.1%
[29]
  cell viability: 101%
[30]
  cell viability: 72.9%
[31]
  cell viability: 73.8%
[32]
  cell viability: 13.1%
[33]
  cell viability: 4.05%

## C[C@H]1Oc2cc(cnc2N)-c2c(nn(C)c2C#N)CN(C)C(=O)c2ccc(F)cc21
[12]
  cell viability: 106%
[13]
  cell viability: 132%
[14]
  cell viability: 125%
[15]
  cell viability: 108%
[16]
  cell viability: 119%
[17]
  cell viability: 126%
[18]
  cell viability: 123%
[19]
  cell viability: 123%
[20]
  cell viability: 131%
[21]
  cell viability: 106%
[22]
  cell viability: 101%

## CC(C)n1cnc2c(NCCc3ccc(O)cc3)nc(-c3csc4ccccc34)nc21
[1]
  cell viability: 108%
[2]
  cell viability: 98%
[3]
  cell viability: 124%
[4]
  cell viability: 99.4%
[5]
  cell viability: 121%
[6]
  cell viability: 116%
[7]
  cell viability: 144%
[8]
  cell viability: 139%
[9]
  cell viability: 51.1%
[10]
  cell viability: 33.8%
[11]
  cell viability: 13.4%
[12]
  cell viability: 115%
[13]
  cell viability: 114%
[14]
  cell viability: 104%
[15]
  cell viability: 113%
[16]
  cell viability: 127%
[17]
  cell viability: 114%
[18]
  cell viability: 119%
[19]
  cell viability: 113%
[20]
  cell viability: 119%
[21]
  cell viability: 57.1%
[22]
  cell viability: 24.9%
[23]
  cell viability: 114%
[24]
  cell viability: 116%
[25]
  cell viability: 115%
[26]
  cell viability: 121%
[27]
  cell viability: 124%
[28]
  cell viability: 116%
[29]
  cell viability: 125%
[30]
  cell viability: 140%
[31]
  cell viability: 130%
[32]
  cell viability: 57.1%
[33]
  cell viability: 29.1%

## OCCN(CCO)c1nc(N2CCCCC2)c2nc(N(CCO)CCO)nc(N3CCCCC3)c2n1
[1]
  cell viability: 128%
[2]
  cell viability: 112%
[3]
  cell viability: 104%
[4]
  cell viability: 128%
[5]
  cell viability: 115%
[6]
  cell viability: 112%
[7]
  cell viability: 120%
[8]
  cell viability: 111%
[9]
  cell viability: 94.5%
[10]
  cell viability: 105%
[11]
  cell viability: 46.4%
[12]
  cell viability: 120%
[13]
  cell viability: 129%
[14]
  cell viability: 119%
[15]
  cell viability: 107%
[16]
  cell viability: 114%
[17]
  cell viability: 113%
[18]
  cell viability: 105%
[19]
  cell viability: 114%
[20]
  cell viability: 111%
[21]
  cell viability: 113%
[22]
  cell viability: 92.4%
[23]
  cell viability: 113%
[24]
  cell viability: 115%
[25]
  cell viability: 117%
[26]
  cell viability: 115%
[27]
  cell viability: 113%
[28]
  cell viability: 114%
[29]
  cell viability: 121%
[30]
  cell viability: 114%
[31]
  cell viability: 114%
[32]
  cell viability: 110%
[33]
  cell viability: 68%

## CN(C(Cc1ccc(O[S+](=O)([O-])c2cccc3cnccc23)cc1)C(=O)N1CCN(c2ccccc2)CC1)[S+](=O)([O-])c1cccc2cnccc12 (stereo not drawn)
[1]
  cell viability: 127%
[2]
  cell viability: 98.3%
[3]
  cell viability: 109%
[4]
  cell viability: 113%
[5]
  cell viability: 103%
[6]
  cell viability: 120%
[7]
  cell viability: 132%
[8]
  cell viability: 95.2%
[9]
  cell viability: 105%
[10]
  cell viability: 77%
[11]
  cell viability: 48.4%
[12]
  cell viability: 93.8%
[13]
  cell viability: 81.5%
[14]
  cell viability: 95.8%
[15]
  cell viability: 101%
[16]
  cell viability: 93.8%
[17]
  cell viability: 86.3%
[18]
  cell viability: 95.2%
[19]
  cell viability: 82.6%
[20]
  cell viability: 91.4%
[21]
  cell viability: 82.5%
[22]
  cell viability: 66.3%
[23]
  cell viability: 82.5%
[24]
  cell viability: 97.7%
[25]
  cell viability: 99.8%
[26]
  cell viability: 94.5%
[27]
  cell viability: 89.2%
[28]
  cell viability: 101%
[29]
  cell viability: 93.9%
[30]
  cell viability: 98.4%
[31]
  cell viability: 93.8%
[32]
  cell viability: 81.6%
[33]
  cell viability: 56.1%

## C[N]1N=CC=C1C/2=C(\C)N(C(=O)C(=C2)/C(=O)NCC3=NC=C(C=C3)[S+](C)([O-])=O)C4=CC=CC(=C4)C(F)(F)F
[12]
  cell viability: 105%
[13]
  cell viability: 127%
[14]
  cell viability: 98.9%
[15]
  cell viability: 107%
[16]
  cell viability: 118%
[17]
  cell viability: 102%
[18]
  cell viability: 102%
[19]
  cell viability: 97.5%
[20]
  cell viability: 100%
[21]
  cell viability: 96.2%
[22]
  cell viability: 93.5%
[23]
  cell viability: 99%
[24]
  cell viability: 106%
[25]
  cell viability: 101%
[26]
  cell viability: 113%
[27]
  cell viability: 111%
[28]
  cell viability: 123%
[29]
  cell viability: 95.7%
[30]
  cell viability: 79.7%
[31]
  cell viability: 79.7%
[32]
  cell viability: 90.1%
[33]
  cell viability: 103%

## COc1ccc([S+](=O)([O-])Nc2cccnc2Nc2ccc(O)cc2)cc1
[12]
  cell viability: 117%
[13]
  cell viability: 107%
[14]
  cell viability: 116%
[15]
  cell viability: 115%
[16]
  cell viability: 121%
[17]
  cell viability: 101%
[18]
  cell viability: 129%
[19]
  cell viability: 97.6%
[20]
  cell viability: 28.6%
[21]
  cell viability: 23.2%
[22]
  cell viability: 29.4%
[23]
  cell viability: 119%
[24]
  cell viability: 113%
[25]
  cell viability: 110%
[26]
  cell viability: 111%
[27]
  cell viability: 114%
[28]
  cell viability: 110%
[29]
  cell viability: 116%
[30]
  cell viability: 114%
[31]
  cell viability: 71.5%
[32]
  cell viability: 36%
[33]
  cell viability: 33.5%

## CN1CCN(CCCN2c3ccccc3Sc3ccc(Cl)cc32)CC1.O=C(O)/C=C\C(=O)O.O=C(O)/C=C\C(=O)O
[1]
  cell viability: 112%
[2]
  cell viability: 123%
[3]
  cell viability: 112%
[4]
  cell viability: 111%
[5]
  cell viability: 124%
[6]
  cell viability: 110%
[7]
  cell viability: 106%
[8]
  cell viability: 47.9%
[9]
  cell viability: 42.8%
[10]
  cell viability: 29.9%
[11]
  cell viability: 32.1%
[12]
  cell viability: 97.8%
[13]
  cell viability: 106%
[14]
  cell viability: 112%
[15]
  cell viability: 107%
[16]
  cell viability: 109%
[17]
  cell viability: 101%
[18]
  cell viability: 108%
[19]
  cell viability: 81.9%
[20]
  cell viability: 58.3%
[21]
  cell viability: 24.2%
[22]
  cell viability: 28.4%
[23]
  cell viability: 94.7%
[24]
  cell viability: 104%
[25]
  cell viability: 127%
[26]
  cell viability: 106%
[27]
  cell viability: 117%
[28]
  cell viability: 115%
[29]
  cell viability: 116%
[30]
  cell viability: 68.9%
[31]
  cell viability: 73%
[32]
  cell viability: 28.3%
[33]
  cell viability: 31.9%
